Reference: patent EP1090646A2, “Labelled d-mannoheptulose derivatives and their use for imaging of the endocrine pancreas” (UNIVERSITE LIBRE DE BRUXELLES, priority 1999, dated 2001)
Read-outs that look alike come from different tables or passages of the source.

Legend:
pieces of pancreas = assay: Apparent distribution space in pieces of pancreas from control and STZ rats; conditions: for apparent distribution space in the presence of D-glucose relative to its absence: D-glucose 8.3 mM; for final distribution space relative to the initial incubation medium radioactive content: after the two successive incubations
Protocol: (§1) Unless otherwise mentioned, the pancreatic pieces or isolated islets were submitted after incubation, to four successive washes conducted at 4°C with a medium containing 20.0 µM cytochalasin B (Sigma, St. Louis, MO, USA).
In the next series of experiments, the possible uptake of D-[^3H]mannoheptulose was compared to that of its hexaacetate ester in pieces of pancreas from normal rats (Figure 2).
In the last set of experiments in this series, pieces of pancreas from either normal or STZ rats were first incubated for 60 min at 37°C in the presence of 8.3 mM D-glucose, then submitted to 3 washes at 4°C in the presence of the hexose (8.3 mM) and cytochalasin B (20.0 µM), further incubated for 60 min at 37°C, still in the presence of D-glucose and the mould metabolite, and eventually submitted to 4 washes at 4°C prior to measurement of their radioactive content.

[1] = tested on: isolated pancreatic islets
Protocol: as §1
In a further series of experiments, groups of 20 islets each were submitted, after incubation, to 6 successive washes at 4°C in the presence of cytochalasin B (20.0 µM).
In the last set of experiments in this series, groups of 20 islets each were incubated for 60 min at 37°C in the presence of D-[^3H]mannoheptulose (0.1 mM), washed thrice at 4°C, further incubated for 60 min at 37°C in the absence of the heptose but presence of cytochalasin B (20.0 µM), again submitted to 4 successive washes, and eventually examined for their radioactive content.

[2] = one day after intraperitoneal injection
Protocol: Female Wistar rats (220-230 g body wt.) were injected intravenously with streptozotocin (0.25 µmol/g body wt.) on day zero. Eight to nine days later, they were transplanted with 1,500-6,000 islets prepared by the collagenase procedure (2) from rats of the same sex and strain (Iffa Credo, L'Arbresle, France). The islets were placed (1,500 islets per module) in 1-4 implantation modules (Statice Santé, Besançon, France), which were inserted, under pentobarbital anaesthesia (0.5-0.6 µmol/g body wt.; Nembutal, Sanofi, Brussels, Belgium), into the peritoneal cavity. The modules were equipped with a 20 µm thick polycarbonate membrane (Whatman, Maidstone, Kent, UK) with 6 x 10^8 pores (diameter : 50 nm) per cm^2. The glycemia of the rats was monitored in blood samples collected from the severed end of the tail.
D-[^3H]mannoheptulose (100 µCi in 0.3 ml saline containing 0.1 mM unlabelled D-mannoheptulose) was injected intraperitoneally and the animals killed by decapitation 24 hours later after a last blood sampling from the severed end of the tail had been obtained for measurement of glycemia. The blood collected after decapitation in heparinized vials was used for measurements of radioactivity in aliquots of blood, plasma and erythrocytes, as well as for determination of plasma D-glucose and insulin concentration. Samples of the liver, gastrocnemius muscle and kidney, as well as the whole pancreas, were homogenised in 1.5 ml H2O, aliquot parts of the homogenates being used for DNA and radioactive measurements. The fluid present in the implantation device was aspirated and also examined for its radioactive content. Thereafter, the implantation device was repeatedly frozen and thawn in 0.4 ml H2O, aliquot parts of this extract being then again used for both DNA and radioactive determinations.
The methods used to measure DNA content (3), glycemia (Glycotronic C; Macherey-Nagel, Düren, Germany), plasma D-glucose (4) and insulin (5) concentrations were previously described in the cited references.

[3] = remark: listed apart in the source
Protocol: Two preparations of D-[^3H]mannoheptulose were used. The first preparation, used in a few in vitro experiments and in one set of in vivo experiments (animals injected 30 to 60 min before sacrifice), was a product from Nycomed Amersham (Little Chalfont, Buckinghamshire, UK). […] The second preparation used in all other experiments was a product from NEN Life Science Products (Zaventem, Belgium). […] In all experiments conducted in vivo, the animals were injected intravenously with D-[^3H]mannoheptulose (10-40 µCi, and 200 µCi in the case of the rats killed 48 hours after this injection) placed in 300 µl of saline. Except in the animals killed 30-60 min after D-[^3H]mannoheptulose injection, the inoculate also contained 0.1 mM unlabelled D-mannoheptulose.
In the in vivo experiments, the STZ rats were either not treated with insulin (animals killed 30-60 min after D-[^3H]mannoheptulose injection) or received twice daily 6 U of insulin (Insulatard, Novo Nordisk, Bagsvaerd, Denmark) subcutaneously, the last of these injections being given at about 5 p.m. on the day before either the injection of D-[^3H]mannoheptulose (animals killed 15 min after D-[^3H]mannoheptulose administration) or the sacrifice of the rats (rats examined 48 hours after D-[^3H]mannoheptulose injection). The animals killed 15 min after the injection of D-[^3H]mannoheptulose received a total of either 5 insulin injections, the first being made at about 5 p.m. on the day after streptozotocin administration, or 6 insulin injections given between the third and fifth day after streptozotocin administration. In the rats killed 48 hours after the injection of D-[^3H]mannoheptulose, the insulin treatment was initiated at 9 a.m. 3 days after streptozotocin administration and continued for a total of 5 days.
At stated times after D-[^3H]mannoheptulose intravenous injection, the rats were killed by decapitation, blood was collected in heparinized vials and the plasma separated for measurement of its radioactive content, as well as D-glucose^13 and insulin^14 concentrations. Samples of gastrocnemius muscle, liver, kidney and pancreas were weighed, homogenised in 1.5-3.0 ml of water, and aliquot parts of these homogenates examined for their radioactive content by liquid scintillation.
All radioactive data were calculated as dpm/µl of plasma or dpm/mg wet wt. (muscle, liver, kidney, pancreas). In these four tissues, the results were eventually expressed as µl/mg wet wt., by dividing the radioactive content (dpm/mg) by the paired plasma value (dpm/µl).

[4] = tested on: tumoral islet cells of the INS-1 line
[5] = tested on: rat pancreatic islets or dispersed islet cells; conditions: 60 min incubation at 37°C
[6] = tested on: tumoral islet cells of the RINm5F line
[7] = up to the 60th min after injection

For `[3H]O[3H]` [^3HOH, reference compound], the “apparent distribution space after two successive incubations relative to that after first incubation and immediate washes” value (pieces of pancreas; normal or STZ rats pooled (n = 16), second 60 min incubation with D-glucose and cytochalasin B) was “no more than 1.8 ± 0.4%”.

With `[3H][C@@](O)(CO)[C@@H](O)[C@H](O)[C@@H](O)C=O` [D-[5-^3H]glucose, reference compound] the “apparent distribution space after incubation at 4°C relative to 37°C” value ([1]; 8.3 mM, 30 min, 6 washes) was 55.5 ± 8.3%.

In the case of `[3H][C@@](O)([C@H](O)CO)[C@H](O)[C@H](O)C(=O)CO` [D-[^3H]mannoheptulose], the “radioactive content of the transplanted islets relative to that found in the pancreas” value (60 min after the intravenous injection) is reported as “about 10 times”, the “radioactive content in the liver and transplanted islets relative to the pancreatic gland” value (one hour after intravenous injection) is reported as 5-8 times and the “calculated radioactive content of the transplanted islets (dpm/mg wet wt.) relative to paired plasma radioactive content (dpm/µl)” value [2] is reported as 6.49 ± 1.27. The paired islet/pancreas ratio [2] was 11.59 ± 0.03, the “radioactive content calculated for the transplanted islets” value [2] was 332.7 ± 30.7 dpm/mg wet weight and the “radioactive content of the kidney” value [2] was 51.0 ± 0.9 dpm/mg wet weight. The “radioactive content of the liver” value [2] was 64.5 ± 6.4 dpm/mg wet weight, the “radioactive content of the muscle” value [2] was 28.9 ± 7.8 dpm/mg wet weight and the “radioactive content of the pancreas” value [2] was 28.7 ± 2.6 dpm/mg wet weight. For the same compound, the “volume of distribution, as judged from the plasma radioactive content” value ([2]; STZ diabetic rats with transplanted islets) was 10.0 ± 2.2 ml/g body weight, the “radioactive content of the pancreatic gland relative to paired plasma value, STZ rats as % of mean control value” ([3]; 15-2880 min after intravenous injection, all available data pooled) was 81.6 ± 4.2% and the “liver/plasma radioactive ratio, STZ rats as % of normal rats” value ([3]; STZ animals not treated with insulin, tracer amount only, no unlabelled heptose) was 56.1 ± 3.3%. The “paired ratio liver/plasma radioactivity, STZ rats as % of control rats” value ([3]; insulin-treated STZ rats (n = 11)) was 109.5 ± 8.3%, the “kidney radioactive content relative to paired plasma value, STZ rats as % of normal rats” value ([3]; rat, in vivo) was 68.1 ± 6.5% and the “paired ratio muscle/plasma radioactivity, STZ rats as % of control rats” value ([3]; rat, in vivo) was 87.7 ± 6.2%. For the same compound, the “radioactive content of the pancreatic gland relative to paired plasma value, STZ rats as % of mean control value” ([3]; results at 15 min not taken into account) was 77.9 ± 5.6%, the muscle/liver ratio [3, 7] was ≤ 17.00 ± 1.17% and the paired pancreas/muscle ratio [3, 7] was 125.71 ± 7.83%. For the same compound, the pancreas/liver ratio [3, 7] was 21.26 ± 1.07%, the apparent distribution space ([1]; 0.1 mM, 10-120 min incubation at 37°C, only 3 washes at 4°C with cytochalasin B 20.0 µM) was ≥ 5.5 nl/islet and the “apparent distribution space in the presence of D-glucose relative to reference value (no D-glucose)” value ([1]; 0.1 mM, 30 or 120 min at 37°C, D-glucose 8.3 mM, 3 washes) was 161.4 ± 23.7%. The “increase of apparent distribution space between the 15th and 120th min of incubation” value ([1]; 0.1 mM, 37°C, 8.3 mM D-glucose, 6 washes) was 73.5 ± 30.3%, the “apparent distribution space relative to that of D-[5-3H]glucose (8.3 mM)” value ([1]; 0.1 mM, 30 min at 37°C, absence of D-glucose, 6 washes) was 77.3 ± 9.4% and the “final radioactive content of islets first incubated with 8.3 mM D-glucose relative to absence of the hexose” value ([1]; 0.1 mM, 60 min 37°C, washes, further 60 min with cytochalasin B 20.0 µM) was 168.5 ± 19.1%. For the same compound, the “final radioactive content with cytochalasin B in the first incubation medium containing 8.3 mM D-glucose, relative to reference value” ([1]; 0.1 mM, cytochalasin B 20.0 µM, 60 min 37°C then second 60 min incubation) was 103.7 ± 14.7%, the “apparent distribution space relative to the intracellular 3HOH space” value [4] was ~9% and the “apparent distribution space in STZ rats relative to control value” (pieces of pancreas; 0.1 mM, 10 to 60 min at 37°C, 8.3 mM D-glucose, overall mean) was 89.2 ± 3.6%. The “apparent distribution space in the presence of cytochalasin B relative to reference value (no cytochalasin B)” value (pieces of pancreas; 0.1 mM, 60 min, 8.3 mM D-glucose, cytochalasin B 20.0 µM, pooled control and STZ rats) was 101.1 ± 4.1%, the “apparent distribution space after two successive incubations relative to that after first incubation and immediate washes” value (pieces of pancreas; 0.1 mM, STZ rats) was 9.4 ± 0.4% and the “apparent distribution space after two successive incubations relative to that after first incubation and immediate washes” value (pieces of pancreas; 0.1 mM, control rats) was 14.4 ± 0.4%. The “ratio between the mean values of apparent distribution space after 60/10 min incubation” value (pieces of pancreas; 0.1 mM, normal rats, 37°C, 8.3 mM D-glucose) was 1.36 ± 0.16, the “final distribution space when the first incubation was conducted at 4°C relative to 37°C” value (pieces of pancreas; STZ rats) was 38.0 ± 3.9% and the “apparent distribution space in the presence of D-glucose relative to its absence” value (pieces of pancreas; STZ rats, 0.1 mM, 60 min) was 83.7 ± 4.5%. The “final distribution space relative to the initial incubation medium radioactive content” value (pieces of pancreas; STZ rats) was 1.34 ± 0.11%, the “final distribution space relative to the initial incubation medium radioactive content” value (pieces of pancreas; control animals) was 1.78 ± 0.10% and the “final distribution space when the first incubation was conducted at 4°C relative to 37°C” value (pieces of pancreas; control rats) was 36.9 ± 4.2%. For the same compound, the “apparent distribution space in the presence of D-glucose relative to its absence” value (pieces of pancreas; control rats, 0.1 mM, 60 min) was 106.7 ± 6.5%, the “apparent intracellular distribution space relative to the intracellular 3HOH space” value [5] was ~50% and the “apparent distribution space relative to the intracellular 3HOH space” value [6] was “about 3%”.
